# Data published in patent US20250129430A1, “HIGH ATP-AFFINITY PROTEIN AS THERAPEUTIC TARGET FOR INTRACTABLE CANCER MOLECULAR SUBTYPES AND INHIBITOR THEREOF” (VeraVerse Co., Ltd., priority 2021, published 2025).
# Key:
# Assay in all cases: Cell viability drug screen, 12-point dose-response AUC
# Format in all cases: cell-based, human
# SNU216 = conditions: 72 hours; for Average Area Under the Viability Curve (AUC), AUC norm value: SNU216 cells (non-SEM subtype)
# Outline: (§1)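 Gastric cancer lines seeded 5×10^3 cells/well, dosed after 24 h with half-log 12-point compound dilutions (DMSO 0.5% control), then 72 h at 37 °C. Viability by luminescence, normalized to DMSO; AUC by trapezoidal method, averaged over repeats.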
# SNU1 = SNU1 cells, 72 hours
# Outline: (§2)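 Each cell line receives a twelve-point half-log titration of drug beginning 24 h after plating 5×10^3 cells per well. Following 72 h culture at 37 °C, luminescent signal is recorded and expressed versus vehicle. AUC is derived by the trapezoidal method.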
# SNU1750 = conditions: 72 hours; for Average Area Under the Viability Curve (AUC), AUC norm value: SNU1750 cells (SEM subtype)
# Outline: as §2
# YCC11 = conditions: 72 hours; for Average Area Under the Viability Curve (AUC), AUC norm value: YCC11 cells (SEM subtype)
# Outline: as §2
# SNU668 = conditions: 72 hours; for Average Area Under the Viability Curve (AUC), AUC norm value: SNU668 cells (SEM subtype)
# Outline: as §2
# Hs746T = conditions: 72 hours; for Average Area Under the Viability Curve (AUC), AUC norm value: Hs746T cells (SEM subtype)
# Outline: as §2
# SNU601 = SNU601 cells, 72 hours
# Outline: as §2
# SNU638 = SNU638 cells, 72 hours
# Outline: as §2
# KATO3 = KATO3 cells, 72 hours
# Outline: as §2
# NCC19 = NCC19 cells, 72 hours
# Outline: as §2
# SNU1967 = SNU1967 cells, 72 hours
# Outline: as §2
# NCC20 = NCC20 cells, 72 hours
# Outline: as §2
# SNU16 = SNU16 cells, 72 hours
# Outline: as §2
# MKN28 = MKN28 cells, 72 hours
# Outline: as §2
# OCUM1 = OCUM1 cells, 72 hours
# Outline: as §2
# SK4 = conditions: 72 hours; for Average Area Under the Viability Curve (AUC), AUC norm value: SK4 cells (SEM subtype)
# Outline: as §2
# MKN1 = MKN1 cells, 72 hours
# Outline: as §2
# YCC3 = YCC3 cells, 72 hours
# Outline: as §2
# SNU719 = SNU719 cells, 72 hours
# Outline: as §1
# MKN74 = MKN74 cells, 72 hours
# Outline: as §1
# NCC24 = NCC24 cells, 72 hours
# Outline: as §2
# SNU484 = conditions: 72 hours; for Average Area Under the Viability Curve (AUC), AUC norm value: SNU484 cells (SEM subtype)
# Outline: as §2
# MKN45 = conditions: 72 hours; for Average Area Under the Viability Curve (AUC), AUC norm value: MKN45 cells (non-SEM subtype)
# Outline: as §1
# SNU620 = SNU620 cells, 72 hours
# Outline: as §2
# NCC59 = NCC59 cells, 72 hours
# Outline: as §2
# YCC2 = YCC2 cells, 72 hours
# Outline: as §2
# AGS = conditions: 72 hours; for Average Area Under the Viability Curve (AUC), AUC norm value: AGS cells (non-SEM subtype)
# Outline: as §1
# NCI_N87 = NCI_N87 cells, 72 hours
# Outline: as §2
# FU97 = system: FU97; set-up: Average Area Under the Viability Curve (AUC), AUC norm value: scale not given here; conditions: FU97 cells, 72 hours
# Outline: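 Trapezoidal AUC of a 12-point, DMSO-normalized dose-response curve. Luminescent viability was measured after 72 h of exposure at 37° C to half-log serial dilutions (0.5% DMSO control), dosed 24 h after plating FU97 cells at 5×10^3 per well.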
smiles,measurement,setting,value
"O=C(Nc1ccc([N+](=O)[O-])cc1Cl)c1cc(Cl)ccc1O [Niclosamide (Niclocide), Niclosamide]","Average Area Under the Viability Curve (AUC), AUC norm value",SNU216,−0.5185
same,"Average Area Under the Viability Curve (AUC), AUC norm value",SNU1,−1.673
same,"Average Area Under the Viability Curve (AUC), AUC norm value",SNU1750,−0.8987
same,"Average Area Under the Viability Curve (AUC), AUC norm value",YCC11,−0.8753
same,"Average Area Under the Viability Curve (AUC), AUC norm value",SNU668,−0.9084
same,"Average Area Under the Viability Curve (AUC), AUC norm value",Hs746T,−0.6858
same,"Average Area Under the Viability Curve (AUC), AUC norm value",SNU601,4.911
same,"Average Area Under the Viability Curve (AUC), AUC norm value",SNU638,−1.105
same,"Average Area Under the Viability Curve (AUC), AUC norm value",KATO3,1.591
same,"Average Area Under the Viability Curve (AUC), AUC norm value",NCC19,2.917
same,"Average Area Under the Viability Curve (AUC), AUC norm value",SNU1967,0.1419
same,"Average Area Under the Viability Curve (AUC), AUC norm value",NCC20,0.2177
same,"Average Area Under the Viability Curve (AUC), AUC norm value",SNU16,−3.062
same,"Average Area Under the Viability Curve (AUC), AUC norm value",MKN28,−0.3809
same,"Average Area Under the Viability Curve (AUC), AUC norm value",OCUM1,0
same,"Average Area Under the Viability Curve (AUC), AUC norm value",SK4,−1.038
same,"Average Area Under the Viability Curve (AUC), AUC norm value",MKN1,0.3991
same,"Average Area Under the Viability Curve (AUC), AUC norm value",YCC3,1.8253
same,"Average Area Under the Viability Curve (AUC), AUC norm value",SNU719,2.503
same,"Average Area Under the Viability Curve (AUC), AUC norm value",MKN74,−1.62
same,"Average Area Under the Viability Curve (AUC), AUC norm value",NCC24,0.68
same,"Average Area Under the Viability Curve (AUC), AUC norm value",SNU484,−1.164
same,"Average Area Under the Viability Curve (AUC), AUC norm value",MKN45,1.159
same,"Average Area Under the Viability Curve (AUC), AUC norm value",SNU620,0.8518
same,"Average Area Under the Viability Curve (AUC), AUC norm value",NCC59,1.141
same,"Average Area Under the Viability Curve (AUC), AUC norm value",YCC2,0.6628
same,"Average Area Under the Viability Curve (AUC), AUC norm value",AGS,−1.094
same,"Average Area Under the Viability Curve (AUC), AUC norm value",NCI_N87,2.802
same,"Average Area Under the Viability Curve (AUC), AUC norm value",FU97,−1.793
COC(=O)Nc1nc2ccc(C(=O)c3cccs3)cc2[nH]1 [Nocodazole],"Average Area Under the Viability Curve (AUC), AUC norm value",SNU216,2.032
same,"Average Area Under the Viability Curve (AUC), AUC norm value",SNU1,−0.7242
same,"Average Area Under the Viability Curve (AUC), AUC norm value",SNU1750,0.7502
same,"Average Area Under the Viability Curve (AUC), AUC norm value",YCC11,−0.8279
same,"Average Area Under the Viability Curve (AUC), AUC norm value",SNU668,−0.1188
same,"Average Area Under the Viability Curve (AUC), AUC norm value",Hs746T,1.28
same,"Average Area Under the Viability Curve (AUC), AUC norm value",SNU601,1.743
same,"Average Area Under the Viability Curve (AUC), AUC norm value",SNU638,−0.1875
same,"Average Area Under the Viability Curve (AUC), AUC norm value",KATO3,3.188
same,"Average Area Under the Viability Curve (AUC), AUC norm value",NCC19,0.8717
same,"Average Area Under the Viability Curve (AUC), AUC norm value",SNU1967,−0.07292
same,"Average Area Under the Viability Curve (AUC), AUC norm value",NCC20,−1.695
same,"Average Area Under the Viability Curve (AUC), AUC norm value",SNU16,−1.507
same,"Average Area Under the Viability Curve (AUC), AUC norm value",MKN28,−0.1478
same,"Average Area Under the Viability Curve (AUC), AUC norm value",OCUM1,0.7248
same,"Average Area Under the Viability Curve (AUC), AUC norm value",SK4,−0.374
same,"Average Area Under the Viability Curve (AUC), AUC norm value",MKN1,−0.6519
same,"Average Area Under the Viability Curve (AUC), AUC norm value",YCC3,3.066
same,"Average Area Under the Viability Curve (AUC), AUC norm value",SNU719,4.976
same,"Average Area Under the Viability Curve (AUC), AUC norm value",MKN74,0.7081
same,"Average Area Under the Viability Curve (AUC), AUC norm value",NCC24,0
same,"Average Area Under the Viability Curve (AUC), AUC norm value",SNU484,−0.8136
same,"Average Area Under the Viability Curve (AUC), AUC norm value",MKN45,2.005
same,"Average Area Under the Viability Curve (AUC), AUC norm value",SNU620,−0.735
same,"Average Area Under the Viability Curve (AUC), AUC norm value",NCC59,3.0345
same,"Average Area Under the Viability Curve (AUC), AUC norm value",YCC2,1.3363
same,"Average Area Under the Viability Curve (AUC), AUC norm value",AGS,−1.573
same,"Average Area Under the Viability Curve (AUC), AUC norm value",NCI_N87,−0.7843
same,"Average Area Under the Viability Curve (AUC), AUC norm value",FU97,0.3797
CCCOc1ccc2nc(NC(=O)OC)[nH]c2c1 [Oxybendazole],"area under the viability curve (AUC), normalized","SNU216; SNU216 cells, 12-point dose-response",1.744
same,"area under the viability curve (AUC), normalized",SNU1; 12-point dose-response,−1.007
same,"area under the viability curve (AUC), normalized","SNU1750; SNU1750 cells, 12-point dose-response",0.4952
same,"area under the viability curve (AUC), normalized","YCC11; YCC11 cells, 12-point dose-response",−0.2902
same,"area under the viability curve (AUC), normalized","SNU668; SNU668 cells, 12-point dose-response",−0.3638
same,"area under the viability curve (AUC), normalized","Hs746T; Hs746T cells, 12-point dose-response",1.204
same,"area under the viability curve (AUC), normalized",SNU601; 12-point dose-response,1.095
same,"area under the viability curve (AUC), normalized",SNU638; 12-point dose-response,−0.2808
same,"area under the viability curve (AUC), normalized",KATO3; 12-point dose-response,3.472
same,"area under the viability curve (AUC), normalized",NCC19; 12-point dose-response,1.219
same,"area under the viability curve (AUC), normalized",SNU1967; 12-point dose-response,0
same,"area under the viability curve (AUC), normalized",NCC20; 12-point dose-response,−0.7466
same,"area under the viability curve (AUC), normalized",SNU16; 12-point dose-response,2.326
same,"area under the viability curve (AUC), normalized",MKN28; 12-point dose-response,−0.1307
same,"area under the viability curve (AUC), normalized",OCUM1; 12-point dose-response,1.059
same,"area under the viability curve (AUC), normalized","SK4; SK4 cells, 12-point dose-response",−0.1414
same,"area under the viability curve (AUC), normalized",MKN1; 12-point dose-response,−0.5859
same,"area under the viability curve (AUC), normalized",YCC3; 12-point dose-response,2.897
same,"area under the viability curve (AUC), normalized",SNU719; 12-point dose-response,3.17
same,"area under the viability curve (AUC), normalized",MKN74; 12-point dose-response,0.4498
same,"area under the viability curve (AUC), normalized",NCC24; 12-point dose-response,−1.131
same,"area under the viability curve (AUC), normalized","SNU484; SNU484 cells, 12-point dose-response",−0.00299
same,"area under the viability curve (AUC), normalized","MKN45; MKN45 cells, 12-point dose-response",2.187
same,"area under the viability curve (AUC), normalized",SNU620; 12-point dose-response,−1.528
same,"area under the viability curve (AUC), normalized",NCC59; 12-point dose-response,2.518
same,"area under the viability curve (AUC), normalized",YCC2; 12-point dose-response,0.7894
same,"area under the viability curve (AUC), normalized","AGS; AGS cells, 12-point dose-response",−1.064
same,"area under the viability curve (AUC), normalized",NCI_N87; 12-point dose-response,−0.1928
same,"area under the viability curve (AUC), normalized",FU97; 12-point dose-response,−0.3548
